What all share (assay type): functional
Test [1] relates to Staphylococcus epidermidis. The test is described as follows: In vitro antimicrobial activity against Staphylococcus epidermidis 222 strain.
The subject of a further test is Streptococcus pneumoniae. The test is described as follows: In vitro antimicrobial activity against Streptococcus pneumoniae PARK strain.
Test [2] concerns Pseudomonas aeruginosa. The test is described as follows: In vitro antimicrobial activity against Pseudomonas X239 strain.
Another test relates to Haemophilus influenzae. Kind of test: In vitro antimicrobial activity against Haemophilus influenzae C.L. strain.
A further test deals with Klebsiella. The test is described as follows: In vitro antimicrobial activity against Klebsiella X26 strain.
The next test relates to Enterobacter cloacae. Kind of test: In vitro evaluation of antimicrobial activity against Enterobacter cloacae EB5 strain.
In test [3] the test system is Staphylococcus aureus. The test is described as follows: In vitro antimicrobial activity against Staphylococcus aureus X1.1 strain.
Test [4] has as its system Staphylococcus aureus. Kind of test: In vitro antimicrobial activity against Staphylococcus aureus X400 strain.
For a further test, the system named is Escherichia coli. Kind of test: In vitro evaluation of antimicrobial activity against Escherichia coli EC14 strain.
Test [5] relates to Staphylococcus epidermidis. The test is described as follows: In vitro antimicrobial activity against Staphylococcus epidermidis 270 strain.
Test [6] deals with Staphylococcus aureus. Kind of test: In vitro antimicrobial activity against Staphylococcus aureus S13E strain.
Test [7] relates to Pseudomonas aeruginosa. Kind of test: Antimicrobial activity against Pseudomonas PS18 strain.

SMILES strings stand for the structures. Where only a bound is given, the exact number is not on record here.

Regarding `Nc1nc(/C(=N\OCCF)C(=O)N[C@@H]2C(=O)N3C(C(=O)[O-])=C(Sc4ncccn4)CC[C@H]23)cs1.[Na+]`, the MIC was 4 µg/mL in test [1]; 0.03 µg/mL against Streptococcus pneumoniae; over 128 µg/mL against Pseudomonas aeruginosa [2]; 0.03 µg/mL against Haemophilus influenzae; 0.015 µg/mL against Klebsiella; 1 µg/mL in the test with Enterobacter cloacae. In addition, the MIC in the test with Staphylococcus aureus [3] is 2 µg/mL; in the test with Staphylococcus aureus [4], 128 µg/mL; against Escherichia coli it was 0.125 µg/mL; in test [5], 8 µg/mL; against Staphylococcus aureus [6], 32 µg/mL; in the test on Pseudomonas aeruginosa [7], over 128 µg/mL.
On to `Nc1nc(/C(=N\OCCF)C(=O)N[C@@H]2C(=O)N3C(C(=O)[O-])=C(SC4=NCCS4)CC[C@H]23)cs1.[Na+]`, for which the MIC was 1 µg/mL in test [1]; under 0.008 µg/mL with Streptococcus pneumoniae; under 128 µg/mL with Pseudomonas aeruginosa [2]; under 0.008 µg/mL against Haemophilus influenzae; 0.015 µg/mL in the test on Klebsiella; 1 µg/mL against Enterobacter cloacae. Also, the MIC against Staphylococcus aureus [3] is 0.5 µg/mL; in the test with Staphylococcus aureus [4], 64 µg/mL; in the test on Escherichia coli it was 0.125 µg/mL; in test [5] it was 2 µg/mL; against Staphylococcus aureus [6], 16 µg/mL; with Pseudomonas aeruginosa [7], 64 µg/mL.
As for `Nc1nc(/C(=N\OCCF)C(=O)N[C@@H]2C(=O)N3C(C(=O)[O-])=C(Sc4nc(C(=O)O)cs4)CC[C@H]23)cs1.[Na+]`, the MIC was 4 µg/mL in test [1]; 0.015 µg/mL in the test on Streptococcus pneumoniae; over 128 µg/mL against Pseudomonas aeruginosa [2]; 0.015 µg/mL with Haemophilus influenzae; 0.25 µg/mL in the test with Klebsiella; 4 µg/mL in the test on Enterobacter cloacae. Moreover, the MIC was 2 µg/mL in the test with Staphylococcus aureus [3]; over 128 µg/mL against Staphylococcus aureus [4]; 0.25 µg/mL in the test with Escherichia coli; 8 µg/mL in test [5]; 128 µg/mL with Pseudomonas aeruginosa [7].
Take `CC(=O)c1sc(SC2=C(C(=O)[O-])N3C(=O)[C@@H](NC(=O)/C(=N/OCCF)c4csc(N)n4)[C@H]3CC2)nc1C.[Na+]`: the MIC in test [1] is 2 µg/mL; in the test with Streptococcus pneumoniae it was under 0.008 µg/mL; against Pseudomonas aeruginosa [2] it was over 128 µg/mL; against Haemophilus influenzae, 0.06 µg/mL; with Klebsiella, 0.125 µg/mL; in the test with Enterobacter cloacae, 8 µg/mL. In addition, the MIC in the test with Staphylococcus aureus [3] is 0.5 µg/mL; in the test with Staphylococcus aureus [4], 128 µg/mL; with Escherichia coli, 1 µg/mL; in test [5], 8 µg/mL; in the test with Staphylococcus aureus [6], 32 µg/mL; in the test with Pseudomonas aeruginosa [7] it was over 128 µg/mL.
In the case of `Cc1nc(SC2=C(C(=O)[O-])N3C(=O)[C@@H](NC(=O)/C(=N/OCCF)c4csc(N)n4)[C@H]3CC2)sc1C.[Na+]`, the MIC in test [1] is 1 µg/mL; against Streptococcus pneumoniae, under 0.008 µg/mL; against Pseudomonas aeruginosa [2], 8 µg/mL; with Haemophilus influenzae, 0.015 µg/mL; against Klebsiella, 0.06 µg/mL; against Enterobacter cloacae, 4 µg/mL. Also, the MIC is 0.5 µg/mL with Staphylococcus aureus [3]; 32 µg/mL in the test with Staphylococcus aureus [4]; 0.5 µg/mL against Escherichia coli; 2 µg/mL in test [5]; 4 µg/mL in the test on Staphylococcus aureus [6]; 64 µg/mL against Pseudomonas aeruginosa [7].
Take `Nc1nc(/C(=N\OCCF)C(=O)N[C@@H]2C(=O)N3C(C(=O)[O-])=C(Sc4nc5c(=O)[nH]c(=O)[nH]c5s4)CC[C@H]23)cs1.[Na+]`: the MIC is 2 µg/mL in test [1]; under 0.008 µg/mL against Streptococcus pneumoniae; over 128 µg/mL against Pseudomonas aeruginosa [2]; under 0.008 µg/mL in the test with Haemophilus influenzae; 0.06 µg/mL against Klebsiella; 1 µg/mL in the test with Enterobacter cloacae. Further, the MIC in the test with Staphylococcus aureus [3] is 2 µg/mL; against Staphylococcus aureus [4], 128 µg/mL; against Escherichia coli it was 0.06 µg/mL; in [5], 8 µg/mL; in the test with Staphylococcus aureus [6] it was 16 µg/mL; against Pseudomonas aeruginosa [7], 64 µg/mL.
With `Nc1ccc2nc(SC3=C(C(=O)[O-])N4C(=O)[C@@H](NC(=O)/C(=N/OCCF)c5csc(N)n5)[C@H]4CC3)sc2c1.[Na+]`, the MIC was 1 µg/mL in [1]; under 0.008 µg/mL in the test with Streptococcus pneumoniae; over 128 µg/mL against Pseudomonas aeruginosa [2]; 0.03 µg/mL in the test with Haemophilus influenzae; 0.03 µg/mL with Klebsiella; 2 µg/mL in the test with Enterobacter cloacae. Further, the MIC with Staphylococcus aureus [3] amounted to 0.25 µg/mL; with Staphylococcus aureus [4], 16 µg/mL; in the test on Escherichia coli, 0.25 µg/mL; in test [5], 1 µg/mL; against Staphylococcus aureus [6] it was 4 µg/mL; in the test with Pseudomonas aeruginosa [7], 128 µg/mL.
`Nc1nc(/C(=N\OCCF)C(=O)N[C@@H]2C(=O)N3C(C(=O)[O-])=C(Sc4nnc(O)c(O)n4)CC[C@H]23)cs1.[Na+]`: the MIC in test [1] is 8 µg/mL; against Streptococcus pneumoniae it was 0.06 µg/mL; in the test on Pseudomonas aeruginosa [2], over 128 µg/mL; against Haemophilus influenzae, 0.03 µg/mL; in the test with Klebsiella it was 0.06 µg/mL; against Enterobacter cloacae, 0.5 µg/mL. The MIC against Staphylococcus aureus [3] was 4 µg/mL; against Staphylococcus aureus [4], over 128 µg/mL; against Escherichia coli it was 0.06 µg/mL; in test [5] it was 32 µg/mL; against Pseudomonas aeruginosa [7] it was over 128 µg/mL.

These data come from ChEMBL document CHEMBL1127066, “Discovery and structure-activity relationship of a series of 1-carba-1-dethiacephems exhibiting activity against methicillin-resistant Staphylococcus aureus” (J Med Chem, 1993).
